What was measured:
[1] = (§1) Antagonist activity at GABAA receptor in Wistar rat neuronal cells assessed inhibition of GABA-evoked response by patch-clamp technique; format: functional, cell-based
neuronal = assay: as §1; format: functional, cell-based

Compound | EC50 [1] [nM] | Activity (neuronal)
CCC[C@@H](O)CC/C=C/C=C/C#CC#CCCCO [DIHYDROOENANTHOTOXIN] | 835 | 
CCC[C@@H](O)CC/C=C/C=C/C#CC#C/C=C/CO [OENANTHOTOXIN] | 1390 | Dose-dependent effect
